According to ChEMBL document CHEMBL1126004, “Synthesis and resolution of 7-fluorotryptophans” (Bioorg Med Chem Lett, 1991):

Experiment: Compound was evaluated for relative ratio (Kcat/Km) between catalyst constant (Kcat) and Michaelis-Menten constant (Km) in a reaction with tryptophan indole-lyase (tryptophanase) from Escherichia coli

| k cat/Km [%] | SMILES |
| --- | --- |
| 100 | N[C@@H](Cc1c[nH]c2ccccc12)C(=O)O |
| 30 | N[C@@H](Cc1c[nH]c2c(F)cc(F)cc12)C(=O)O |
| 6 | N[C@@H](Cc1c[nH]c2c(F)ccc(F)c12)C(=O)O |
| 14 | N[C@@H](Cc1c[nH]c2c(F)cccc12)C(=O)O |
